From US20250280826A1, “PLANT GROWTH PROMOTER” (KAO CORPORATION, priority 2022, published 2025)

What was measured:
[1] = tested on: soybean (Glycine max); test: Test Example 1: soybean yield (dry grain mass) in field after one foliar spray; assay type: in vivo
Procedure: An ascorbic acid aqueous solution prepared by dissolving ascorbic acid in water and an ascorbic acid aqueous solution prepared by dissolving ascorbic acid in deionized water were prepared, and the influence of the ascorbic acid dissolved in water on the application effect for soybean (Glycine max) was examined.
The influence of one foliar spray of 500 mass ppm ascorbic acid on the soybean yield was evaluated. The evaluated test plots 1 to 3 are as shown below. • 1 plot: control (no application) • 2 plot: foliar spray of 500 mass ppm ascorbic acid (dissolved in tap water) • 3 plot: foliar spray of 500 mass ppm ascorbic acid (dissolved in deionized water)
The cultivation of soybean was carried out in a field in Tochigi Prefecture, and the soybean cultivar used was “Sato no Hohoemi.” Of the field, a ridge with a width of 2 m excluding the perimeter was used as one plot, and foliar spray treatment was carried out. […]
The ascorbic acid used was “Food Additive Grade Vitamin C (L-ascorbic acid) Fine Mesh TypeSSS” manufactured by Fuso Chemical Co. Ltd. An aqueous solution of 500 mass ppm ascorbic acid was dissolved in tap water or deionized water for production. […] The dry grain mass was measured as yield data.
After calculating the average grain weight of each plant in one plot, the mean and the standard deviation of three plots were calculated (FIG. 1).

[2] = tested on: soybean; test: Example 2: soybean nodule weight one week after foliar spray; assay type: in vivo
Procedure: Medium-term fertilizer effect type culture soil (Takii hydrous cell medium-term fertilizer effect type, Takii & Co., Ltd.) and vermiculite grains (Akagi-Engei Co., Ltd.) were mixed at a volume ratio of 1:1, and the soil was placed in a polypot (diameter: 10.5 cm, height: 9 cm). The soybean seeds used were “Enrei” (purchased from Nikko Seed Co. Ltd.). After tap water was supplied in an amount of 250 mL per pot, 2 seeds per pot were each sown at a depth of from about 1 to 2 cm from the soil surface. The number of repeats in each test plot was 6 (n=6).
1.5% agar (Wako Pure Chemical Industries, Ltd.) was added to Yeast-Mannitol (YM) medium (0.5 g of K2HPO4, 0.2 g of MgSO4-7H2O, 0.1 g of NaCl, 0.4 g of yeast extract, 10 g of mannitol, and 1 L of distilled water (pH: 6.8)) to prepare a solid medium, and a soybean Rhizobium (Bradyrhizobium japonicum) NBRC14783T strain was grown on the solid medium. A platinum loop of the grown Rhizobium was taken and inoculated in 50 mL of YM liquid medium in a Sakaguchi flask with a volume of 500 mL, and shake-cultured at 30° C. for about 36 hours. A Rhizobium culture solution whose value of turbidity OD600 of bacterial cells was about 0.3 was prepared. […]
The mean and the standard deviation were calculated from the data of four repeats, excluding the highest and the lowest values from the six repeats in each test plot.

[3] = tested on: soybean; test: Example 4: soybean yield-enhancing effect in field (dry grain mass); assay type: in vivo; details: ascorbic acid 1,500 ppm, one foliar spray, 6.7 mL per plant, day 75 after sowing
Procedure: The influence of foliar spray of a composition containing 1 500 ppm ascorbic acid on soybean yield was evaluated. Foliar spray was carried out only once, and types of test plots were examined (Table 5). The cultivation of soybean was carried out in a field in Tochigi Prefecture, and the soybean cultivar used was “Sato no Hohoemi.” Of the field, a ridge with a width of 2 m excluding the perimeter was used as one plot, and foliar spray treatment was carried out. 3 plot tests were carried out per test plot. An average of 10 plants were cultivated in the range of 2 m, which was set as one plot. In addition to the reagents mentioned in Example 2, polyoxyethylene lauryl ether was used as a nonionic surfactant. Further, the urea, potassium dihydrogen phosphate, sodium sulfite, glutathione, and EDTA used were those manufactured by FUJIFILM Wako Pure Chemical Corporation. The reagents were dissolved in tap water or deionized water to prepare spraying solutions. By using a battery-driven atomizer (GT-5HS, Koshin Ltd.), 6.7 mL of the ascorbic acid aqueous solution per plant was sprayed over the entire soybean plant body. […] The dry grain mass was measured as yield data. After calculating the average grain weight of each plant in one plot, the mean and the standard deviation for the eight plots were calculated (FIG. 9).

[4] = tested on: legume crops; details: total of three foliar sprays, ascorbic acid solution dissolved in distilled water, vegetative or reproductive growth stage; cited from earlier work

With `O=C1O[C@H]([C@@H](O)CO)C(O)=C1O` [ascorbic acid, (R)-3,4-dihydroxy-5-((S)-1,2-dihydroxyethyl)furan-2(5H)-one] the “effects of ascorbic acid on seed weight” value ([1]; 500 mass ppm dissolved in tap water) was “effects of ascorbic acid disappear”, the “effects of tap water and deionized water on the seed weight” value ([1]; 500 mass ppm, 20 mL per plant, day 60 after sowing, tap water vs deionized water) was “different effects” and the nodule weight ([2]; ascorbic acid 1,500 ppm dissolved in deionized water, soybean early growth stage) was “increased”. The “application effect of ascorbic acid (nodule weight)” value ([2]; ascorbic acid 1,500 ppm dissolved in tap water) was “tended to decrease”, the “effects of tap water and deionized water on seed weight” value [3] was “different from each other” and the increase the yield [4] was “up to 30%”.
